Results published in article PMC8955265, “Systematic Discovery of FBXW7-Binding Phosphodegrons Highlights Mitogen-Activated Protein Kinases as Important Regulators of Intracellular Protein Levels” (International Journal of Molecular Sciences, 2022).
Where a SMILES comes first, the peptide text is derived from it. [ ]: non-standard residue; d: D form. pT = C[C@@H](OP(=O)(O)O)[C@H](N)C(=O)O; pS = N[C@@H](COP(=O)(O)O)C(=O)O

Key:
[1] = biological target: T1, Skp1-FBXW7 complex (Homo sapiens, UniProt P63208+Q969H0); test: Fluorescence polarization competitive protein-peptide binding assay; conditions: for binding affinity to purified FBXW7 in vitro: FP based quantitative in vitro binding assay, result in words; for Kd: FP competition of unlabeled peptide against 50 nM CF-labeled CCNE peptide at ~60-80% complex formation, 20 mM Tris pH 8.0, 100 mM NaCl, 0.05% Brij35P, 2 mM TCEP, value with error
T1 construct: human FBXW7 (263-707) with an N-terminal hexa-histidine (His6) tag; His6 (N, cleaved yes); made in house; host or cells: E. coli Rosetta (DE3)
T1 sequence (Q969H0 263-707): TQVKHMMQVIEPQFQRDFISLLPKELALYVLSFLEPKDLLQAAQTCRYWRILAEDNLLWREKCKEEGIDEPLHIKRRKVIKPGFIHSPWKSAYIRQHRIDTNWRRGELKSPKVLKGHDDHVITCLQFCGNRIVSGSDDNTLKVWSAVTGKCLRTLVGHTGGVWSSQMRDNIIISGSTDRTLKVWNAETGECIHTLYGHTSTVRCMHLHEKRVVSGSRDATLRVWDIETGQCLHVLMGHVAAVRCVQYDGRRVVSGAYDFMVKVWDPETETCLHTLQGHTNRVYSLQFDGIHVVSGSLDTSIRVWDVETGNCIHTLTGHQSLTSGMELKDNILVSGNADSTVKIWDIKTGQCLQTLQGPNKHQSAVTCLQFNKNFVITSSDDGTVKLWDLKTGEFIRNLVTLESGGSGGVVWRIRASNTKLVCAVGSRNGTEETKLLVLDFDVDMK
T1 sequence (P63208 1-149 partner limits assumed): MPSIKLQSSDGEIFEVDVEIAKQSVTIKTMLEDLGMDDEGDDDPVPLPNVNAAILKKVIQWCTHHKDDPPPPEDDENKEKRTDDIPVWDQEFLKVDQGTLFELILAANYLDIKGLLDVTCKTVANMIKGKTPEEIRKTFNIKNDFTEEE
Protocol: Truncated Skp1 (1-149) and human FBXW7 (263-707) with an N-terminal hexa-histidine (His6) tag were cloned into a bicistronic plasmid (pMG950) and were co-expressed in E. coli Rosetta (DE3) strain. The Skp1-FBXW7 complex was purified using affinity, anion exchange, and gel filtration chromatography. The DNA expression plasmid was transformed into E. coli Rosetta (DE3) strain and grown in LB until OD600 = 0.5, protein expression was induced with 100 µM isopropyl-β-d-1-thigalatopyaranoside (IPTG) overnight at 18 °C. The cell pellet was lysed, and the recombinant protein was purified using Ni-NTA agarose beads. Before further purification the His6-tag was removed by using the TEV protease and then the protein complex was further purified using anion exchange chromatography twice, first with a Resource Q and then with a Mono Q column (pH = 8). Finally, the complex was subjected to size-exclusion chromatography in 20 mM Tris, pH = 8, 150 mM NaCl, and 1 mM DTT using a Superdex200 10/300 column (GE Healthcare, Chicago, IL, USA). The eluted fractions were pooled together and were supplemented with 10% glycerol and 2 mM TCEP before concentration and storage.
Fluoresce polarization (FP) based protein–peptide binding affinity measurements were carried out using 50 nM carboxyfluorescein (CF) labeled CCNE peptide (CF-PSGLLpTPPQpSGKKQ) and data were fit to a direct or a competitive binding equation using OriginPro 2018 as described earlier. For the direct measurements the concentration of Skp1-FBXW7 complex was increased in a titration experiment and then the binding affinity (Ki) of the unlabeled peptide was determined by titrating the Skp1-FBXW7: labelled peptide complex sample, at a concentration corresponding to ~60–80% complex formation, with increasing amounts of unlabeled peptide. All the FP measurements were performed in 20 mM Tris (pH 8.0), 100 mM NaCl, 0.05% Brij35P, and 2 mM TCEP using a Cytation^TM 3 (BioTek Instruments) plate reader (384-well plates in 20 µL binding reaction volume). Peptides were chemically synthesized and were ordered from GenScript.

[2] = system: FBXW7; test: Ratiometric EGFP/DsRed protein degradation assay with degron probes; assay type: cell-based, human; conditions: putative degron motif in EGFP-fused probe with AAKG2 MAPK docking motif; HEK293T, 48 h after transfection, EGFP/DsRed ratio with and without FBXW7 plasmid; search cycles 1-4
Excerpt: In order to be able to test putative phosphodegron motifs, a ratiometric protein level monitoring method was adapted to monitor MAPK controlled FBXW7 mediated protein degradation. Briefly, intact DsRed and an EGFP-chimera were expressed in HEK293T cells in equal amounts from an expression plasmid, giving an EGFP/DsRed fluorescence ratio close to one under non-degrading conditions. EGFP was fused to a probe comprised of a putative degron sequence and a known MAPK binding docking motif. EGFP signal is expected to diminish faster than DsRed in cells with more FBXW7 if the probe responded to degradation.
We started out from an intentionally general consensus motif of FBXW7 degrons, inspired by the liberal [TS]P..[TS]P pattern defined for yeast Cdc4 substrates, and scanned the human disordered part of the proteome using SliMSearch4 (the disorder score cut-off was 0.4 and flank length was 5). In all, 22 motifs from this list were subjectively chosen and tested in the ratiometric degradation assay giving only 5 positives (see Supplementary Table S1). Based on the results of this first round, by taking information both from the identified positives and negatives, the consensus motif definition was narrowed to requiring a proline at P + 2, but motifs were allowed to have a phospho-mimicking residue (D or E) at P + 4 because it had been formerly reported that this second phosphorylatable residue may be replaced by aspartate or glutamate. […] In the third round, hydrophobic amino acids were more strictly required at positions −1/−2 and P − 1/2/3 positions were further narrowed and P + 4 position was relaxed based on the identified negatives, which gave a higher hit rate (4 out of 6). This third round gave functional motifs at a good rate, but the used motif definition was very restrictive compared to other known motifs. Finally, in the fourth round, we gave up using an optimal consensus and established the positional relaxation model. […] Hits on this final, most predictive list are presented in Supplementary Table S2. All entries were filtered for motif locations by UniProt annotations, discarding all enzyme-inaccessible (e.g., extracellular) instances. Motifs that had any overlapping PFAM domain indicated were manually assessed using the AlphaFold EBI website. Out of these, only motifs that were highly accessible and located outside of confidently predicted folded domains were kept. We also added kinase consensus compatibility to every motif and the number of experiments where phosphorylation could be detected from PhosphoSitePlus.
The chimera degron module was ordered from IDT as gene Block (gBlock). It consisted of a coiled coil dimerization motif (GCN4: EELLSKNYHLENEVARLKK) to increase sensitivity by allowing multivalent binding, a MAPK binding docking motif (AAKG2: KKNASQKRRSLRVHIPDL), and the CycECO degron motif. The motifs were separated by Gly-Ser-Asn linkers and the gBlock was designed so that the motifs could be easily changed by using unique sets of restriction endonucleases. The gBlock was sub-cloned into the Gateway pENTR4 entry plasmid (Thermo Fisher, Waltham, MA, USA) using restriction enzymes (SalI and NotI). The pENTR4-chimera and the destination plasmid (MSCV-CMV-DsRed-IRES-EGFP-DEST from Addgene; 41941), [28]) were subjected to gateway cloning using LR clonase II enzyme (Invitrogen) to obtain the first DsRed-EGFP-chimera DNA construct containing the cycECO degron. Oligonucleotides corresponding to different degron sequences and docking motifs were ligated into the DsRed-EGFP-chimera DNA construct. The list of all the oligonucleotides used for cloning is provided in Supplementary Table S3. pcDNA3-FLAG-FBXW7α was a kind gift from Michael Pagano (New York University). The FBXW7 arginine mutant (Arg mutant: R465C; R479Q; R505L) was created using two-step PCR and cloned into the pcDNA3-FLAG plasmid. […]

CC(C)C[C@H](NC(=O)[C@@H](NC(=O)[C@H](CO)NC(=O)[C@H](CC(N)=O)NC(=O)[C@@H](N)CO)C(C)C)C(=O)N[C@@H](CC(N)=O)C(=O)N[C@H](C(=O)N1CCC[C@H]1C(=O)N1CCC[C@H]1C(=O)N[C@H](C(=O)N[C@H](C(=O)N1CCC[C@H]1C(=O)N[C@@H](CCC(=O)O)C(=O)N[C@@H](CO)C(=O)N1CCC[C@H]1C(=O)O)[C@@H](C)OP(=O)(O)O)[C@@H](C)O)[C@@H](C)OP(=O)(O)O [ARID4B] (H-SNSVLN[pT]PPT[pT]PESP-OH)
binding affinity to purified FBXW7 in vitro [1]: low nanomolar
Kd [1]: 17.7 ± 0.6 nM

CC(C)C[C@H](NC(=O)[C@@H]1CCCN1C(=O)[C@H](CCCCN)NC(=O)[C@H](Cc1ccccc1)NC(=O)CNC(=O)[C@@H](N)CO)C(=O)N[C@H](C(=O)N1CCC[C@H]1C(=O)N1CCC[C@H]1C(=O)N[C@H](C(=O)N[C@H](C(=O)N1CCC[C@H]1C(=O)N[C@@H](CC(C)C)C(=O)N[C@@H](CO)C(=O)N1CCC[C@H]1C(=O)O)[C@@H](C)OP(=O)(O)O)[C@@H](C)O)[C@@H](C)OP(=O)(O)O [ETV5] (H-SGFKPL[pT]PPT[pT]PLSP-OH)
binding affinity to purified FBXW7 in vitro [1]: low nanomolar
Kd [1]: 16.1 ± 2.1 nM

CC[C@H](C)[C@H](NC(=O)[C@@H]1CCCN1C(=O)[C@@H]1CCCN1C(=O)[C@@H](NC(=O)[C@@H](NC(=O)[C@@H]1CCCN1C(=O)[C@@H]1CCCN1C(=O)[C@@H](NC(=O)[C@H](CC(C)C)NC(=O)[C@H](CO)NC(=O)CNC(=O)[C@H](CO)NC(=O)[C@H](CO)NC(=O)[C@@H](N)Cc1c[nH]cn1)[C@@H](C)OP(=O)(O)O)C(C)C)[C@@H](C)OP(=O)(O)O)C(=O)N[C@H](C(=O)O)[C@@H](C)O [JAZF1] (H-HSSGSL[pT]PPV[pT]PPIT-OH)
binding affinity to purified FBXW7 in vitro [1]: low nanomolar
Kd [1]: 29.7 ± 3.2 nM

CSCC[C@H](NC(=O)[C@@H]1CCCN1C(=O)[C@@H](NC(=O)[C@H](CCC(=O)O)NC(=O)[C@@H]1CCCN1C(=O)[C@@H]1CCCN1C(=O)[C@@H](NC(=O)[C@H](Cc1ccc(O)cc1)NC(=O)[C@H](CC(C)C)NC(=O)[C@H](CC(N)=O)NC(=O)[C@H](CC(C)C)NC(=O)[C@H](CCCCN)NC(=O)[C@@H](N)Cc1ccccc1)[C@@H](C)OP(=O)(O)O)[C@@H](C)OP(=O)(O)O)C(=O)N[C@@H](CCC(=O)O)C(=O)N1CCC[C@H]1C(=O)O [KAT6B] (H-FKLNLY[pT]PPE[pT]PMEP-OH)
binding affinity to purified FBXW7 in vitro [1]: low nanomolar
Kd [1]: 2.8 ± 0.2 nM

CSCC[C@H](NC(=O)CNC(=O)[C@H](Cc1c[nH]cn1)NC(=O)[C@@H](N)[C@@H](C)O)C(=O)N[C@@H](CCSC)C(=O)N[C@@H](CC(C)C)C(=O)N[C@H](C(=O)N1CCC[C@H]1C(=O)N1CCC[C@H]1C(=O)N[C@@H](CO)C(=O)N[C@@H](COP(=O)(O)O)C(=O)N1CCC[C@H]1C(=O)N[C@@H](CC(C)C)C(=O)N[C@@H](CCC(=O)O)C(=O)N[C@@H](CC(C)C)C(=O)O)[C@@H](C)OP(=O)(O)O [KLF4] (H-THGMML[pT]PPS[pS]PLEL-OH)
binding affinity to purified FBXW7 in vitro [1]: low nanomolar
Kd [1]: 11 ± 1 nM

CSCC[C@H](NC(=O)[C@@H]1CCCN1C(=O)[C@@H]1CCCN1C(=O)[C@@H](NC(=O)[C@@H]1CCCN1C(=O)[C@H](CC(N)=O)NC(=O)CNC(=O)[C@@H]1CCCN1C(=O)[C@@H](NC(=O)[C@@H]1CCCN1)C(C)C)[C@@H](C)OP(=O)(O)O)C(=O)N[C@H](C(=O)N1CCC[C@H]1C(=O)NCC(=O)N[C@@H](CO)C(=O)N[C@@H](CO)C(=O)O)[C@@H](C)OP(=O)(O)O [ZMIZ1] (H-PVPGNP[pT]PPM[pT]PGSS-OH)
binding affinity to purified FBXW7 in vitro [1]: low nanomolar
Kd [1]: 52.3 ± 2.6 nM

LGPPPGLLTPPVATELSQN [CCAR2, synthetic peptide of the CCAR2 motif, P + 4 nonphospho class]
binding affinity to purified FBXW7 in vitro [1]: low micromolar
Outcome [2]: Positive (tested positive, where +FBXW7/control protein level ratio was lower than 1)

TCPNSPSTPPSTPSPRV [SOS2, putative FBXW7 degron motif tested as EGFP-fused degradation probe]
Outcome [2]: Negative

TEPRSSPSPPPSPTEPE [CUX2, putative FBXW7 degron motif tested as EGFP-fused degradation probe]
Outcome [2]: Negative

TTVTPPGTPPMR [KSR2-b, putative FBXW7 degron motif tested as EGFP-fused degradation probe]
Outcome [2]: Negative

VAVSPTPPVSPEVRST [CEP164, putative FBXW7 degron motif tested as EGFP-fused degradation probe]
Outcome [2]: Negative

VKRTLPSPPPEEAHLP [BSN, putative FBXW7 degron motif tested as EGFP-fused degradation probe]
Outcome [2]: Negative
